According to publication PMC10120551, “Novel Glu-based pyrazolo[3,4-d]pyrimidine analogues: design, synthesis and biological evaluation as DHFR and TS dual inhibitors” (Journal of Enzyme Inhibition and Medicinal Chemistry, 2023):
Read-outs that look alike come from different tables or passages of the source.

Assays:
[1] = system: RPMI-8226; assay: cells; conditions: Homo sapiens
[2] = system: UACC-257; assay: cells; conditions: Homo sapiens
[3] = system: ACHN; conditions: Renal cancer, five-dose 0.01–100 µM
[4] = system: SNB-19; conditions: SNB-19, CNS cancer; five-dose 0.01–100 µM
[5] = system: HS 578 T; assay: cells; conditions: Homo sapiens
[6] = system: MDA-MB-231/ATCC; conditions: Breast cancer, five-dose 0.01–100 µM
[7] = system: full NCI 59 cell panel
[8] = system: OVCAR-3; assay: cells; conditions: Homo sapiens
[9] = system: MALME-3M; assay: cells; conditions: Homo sapiens
[10] = system: BT-549; assay: cells; conditions: Homo sapiens
[11] = system: T-47D; conditions: Breast cancer, five-dose 0.01–100 µM
[12] = system: LOX IMVI; assay: cells; conditions: Homo sapiens
[13] = system: HS 578 T; conditions: Breast cancer, five-dose 0.01–100 µM
[14] = system: MOLT-4; conditions: MOLT-4, Leukaemia; five-dose 0.01–100 µM
[15] = system: PC-3; conditions: PC-3, Prostate cancer; five-dose 0.01–100 µM
[16] = system: SF-539; conditions: SF-539, CNS cancer; five-dose 0.01–100 µM
[17] = target: recombinant hDHFR (Homo sapiens, UniProt P00374); assay: DHFR inhibitory assay
Chain of recombinant hDHFR (P00374 whole entry): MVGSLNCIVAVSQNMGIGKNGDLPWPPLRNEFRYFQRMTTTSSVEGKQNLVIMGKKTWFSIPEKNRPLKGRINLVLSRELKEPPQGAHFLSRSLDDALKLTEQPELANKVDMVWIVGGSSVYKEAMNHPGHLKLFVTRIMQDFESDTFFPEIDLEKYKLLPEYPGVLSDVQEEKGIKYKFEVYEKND
Procedure: DHFR inhibition assay kit (BioVision, K247–100) supplied with recombinant hDHFR was utilised in this assay. The assay was performed as instructed in assay kit[32]. Briefly, in a 96-well clear plate, serial dilutions of the test compound (2 μL) were loaded. […] An assay buffer (100 µl) was used as a Background Control. Then, 40 μL of diluted NADPH in assay buffer (40-fold dilution) was added and mixed well. At 25 °C in the dark, the plate was incubated for 15 min. […] Instantaneously, the absorbance was read at 340 nm for 10–20 min at 25 °C in kinetic mode by Robonik ELISA plate reader. Finally, the activity and relative inhibition percentages were measured using the equations indicated in the assay kit[33–35].

[18] = system: SK-OV-3; conditions: SK-OV-3, Ovarian cancer; five-dose 0.01–100 µM
[19] = system: MDA-MB-435; assay: cells; conditions: Homo sapiens
[20] = system: CAKI-1; assay: cells; conditions: Homo sapiens
[21] = system: OVCAR-5; conditions: OVCAR-5, Ovarian cancer; five-dose 0.01–100 µM
[22] = system: HT29; assay: cells; conditions: Homo sapiens
[23] = system: RXF 393; conditions: RXF 393, Renal cancer; five-dose 0.01–100 µM
[24] = system: NCI-H460; assay: cells; conditions: Homo sapiens
[25] = system: CNS cancer subpanel; assay: NCI five-dose screen, subpanel MG-MID; type: cell-based, human
Procedure: (Figures S53–S56 in Supporting Information). This assay evaluates GI50, TGI, and LC50 parameters, as cited in Table 1. Their values correspondingly represent the GI level, cytostatic impact, and cytotoxicity parameter. Furthermore, based on the GI50 values, the mean graph midpoints (MG-MID) for both full NCI 59 cell panel and subpanel cancer cell lines were evaluated, affording a median potency parameter for the examined compound 6i, as depicted in Table 2.
Moreover, the selectivity index (SI) of the most efficient analogue 6i was calculated from the division of full-panel MG-MID by subpanel MG-MID. A value greater than 6 implies high selectivity, whereas a ratio from 3 to 6 denotes moderate selectivity. Otherwise, the compound is referred to as non-selective.[24] […] Therefore, the outstanding anti-cancer profile of compound 6i against the herein examined NCI-59 cell panels inspired us to explore its mechanism of action further.
The designed analogues were submitted to NCI-Chemotherapeutic Agents Repository (MD, USA) for screening on a panel of 59 cancer cell lines. All compounds were initially examined at 10 µM concentration (Single-Dose Screen), and then the most efficient analogue 6i was screened further at 0.01–100 µM (Five-Dose Screen). The screening procedures were performed according to NCI-Drug Evaluation Branch protocol using SRB protein assay, as described previously[21]^,[66]. The experimental procedures were detailed in the Supporting Information.

[26] = system: full NCI 59 cell panel; assay: cells; conditions: Homo sapiens
[27] = system: HL-60(TB); conditions: Leukaemia, five-dose 0.01–100 µM
[28] = system: LOX IMVI; conditions: Melanoma, five-dose 0.01–100 µM
[29] = system: MDA-MB-468; assay: cells; conditions: Homo sapiens
[30] = system: HCT-15; assay: cells; conditions: Homo sapiens

In the case of CCOC(=O)CC[C@H](NC(=O)c1ccc(NC(=O)Cn2cnc3c(c(C)nn3-c3ccc(Br)cc3)c2=O)cc1)C(=O)OCC [Compound 6i], the GI50 ([1]; RPMI-8226) is reported as 22.7 µM, the CC50 ([1]; RPMI-8226, read-out: LC50) is reported as greater than 100 µM and the GI50 ([2]; UACC-257) is reported as 31.5 µM. It also gave a CC50 ([2]; UACC-257, read-out: LC50) greater than 100 µM, a TGI [3] of 34.3 µM and a TGI [4] of 27.3 µM. The GI50 [5] was 12.7 µM, the CC50 ([5]; read-out: LC50) was greater than 100 µM and the TGI [6] was 26.8 µM. The TGI ([7]; HL-60(TB), CCRF-CEM, MOLT-4, K-562, SR, RPMI-8226, HCC-2998, HCT-15, HCT-116, KM12, U250, M14, UACC-257, OVCAR-8, SN12C, 786-0, T-47D, BT-549) was “more than 100 µM”, the “Full panel MG-MID” value ([7]; mean graph midpoint based on GI50, full NCI 59 cell panel) was 20.45 µM and the GI50 ([8]; OVCAR-3) was 11.7 µM. The CC50 ([8]; OVCAR-3, read-out: LC50) was greater than 100 µM, the GI50 [9] was 15 µM and the CC50 ([9]; read-out: LC50) was 59.4 µM. For the same compound, the GI50 ([10]; BT-549) was 4.54 µM, the CC50 ([10]; BT-549, read-out: LC50) was greater than 100 µM and the TGI [11] was greater than 100 µM. It also gave a GI50 [12] of 5.3 µM, a CC50 ([12]; read-out: LC50) of 58.4 µM and a TGI [13] of 45.7 µM. For the same compound, the TGI [14] was greater than 100 µM, the TGI [15] was 19.4 µM and the TGI [16] was 33.0 µM. It also gave an IC50 [17] of 2.41 ± 0.13 µM, a TGI [18] of 67.3 µM and a GI50 ([19]; MDA-MB-435) of 12.2 µM. It also gave a CC50 ([19]; MDA-MB-435, read-out: LC50) of 96.1 µM, a GI50 ([20]; CAKI-1) of 10.4 µM and a CC50 ([20]; CAKI-1, read-out: LC50) of 47 µM. It also gave a TGI [21] of 56.3 µM, a GI50 ([22]; HT-29) of 18.4 µM and a CC50 ([22]; HT-29, read-out: LC50) greater than 100 µM. For the same compound, the TGI [23] was 50.9 µM, the GI50 ([24]; NCI-H460) was 13.7 µM and the CC50 ([24]; NCI-H460, read-out: LC50) was 86.9 µM. For the same compound, the MG-MID ([25]; CNS cancer subpanel, based on GI50) was 12.70 µM, the Selectivity index ([25]; CNS cancer, full-panel MG-MID / subpanel MG-MID) was 1.61 and the GI50 ([26]; range over HOP-62, A549/ATCC, HOP-92, NCI-H23, NCI-H226, SF-268, HCT-116, OVCAR-8, LOX IMVI, DU-145, PC-3, 786-0, BT-549, MCF7) was 3.93 to 9.85 µM. It also gave a GI50 ([26]; range over the residual examined cell lines) of 10.1 to 71 µM, a CC50 ([26]; read-out: LC50, most of the examined cancer cells) greater than 100 µM and a CC50 ([26]; read-out: LC50, range over the 23 cell lines listed in b28 as exceptions) of 47 to 96.1 µM. For the same compound, the TGI [27] was greater than 100 µM, the TGI [28] was 20.6 µM and the GI50 ([29]; MDA-MB-468) was 13.5 µM. It also gave a CC50 ([29]; MDA-MB-468, read-out: LC50) greater than 100 µM, a GI50 ([30]; HCT-15) of 26 µM and a CC50 ([30]; HCT-15, read-out: LC50) greater than 100 µM.
